From PubChem BioAssay (NCI)
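96-well plates; 48 h exposure; 5 concentrations. Endpoints by linear interpolation between flanking doses. Not reached: highest tested concentration assigned. Abbreviation: GI50, concentration required for 50% inhibition of growth. The concentration for full growth arrest is given as TGI.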

Columns and labels:
Assay in all cases: NCI anticancer screen, dose series, 48 h
[1] = system: DU-145 prostate
[2] = system: M14 melanoma
[3] = system: MDA-MB-435
[4] = system: RXF 393 renal
[5] = system: SF-539 CNS
[6] = system: SK-MEL-2 melanoma
[7] = system: SNB-75 CNS
[8] = system: T-47D breast
[9] = system: UACC-257 melanoma
[10] = system: HCC-2998 colon

Compound	TGI [1] [µM]	TGI [2] [µM]	TGI [3] [µM]	TGI [4] [µM]	TGI [5] [µM]	TGI [6] [µM]	TGI [7] [µM]	TGI [8] [µM]	TGI [9] [µM]	TGI [10] [µM]	GI50 [1] [µM]	GI50 [10] [µM]	GI50 [2] [µM]	GI50 [3] [µM]	GI50 [4] [µM]	GI50 [5] [µM]	GI50 [7] [µM]	GI50 [8] [µM]	GI50 [9] [µM]	GI50 [6] [µM]
CCOC(=O)C1(C(=O)OCC)Nc2cccnc2N(C)N1	42.5	39.1	36	33.3	30.7	37	> 100	53.5	32.3	–	–	–	–	–	–	–	–	–	–	–
CNC(=O)OC(C)CN1c2ccccc2Sc2ccc(Cl)cc21 (stereo unspecified)	> 10	> 10	> 10	> 10	> 10	> 10	> 10	> 10	–	> 10	–	–	–	–	–	–	–	–	–	–
C[C@]12CC[C@@H]3c4ccc(OP(=O)(O)O)cc4CC[C@H]3[C@@H]1CCC2=O	> 100	> 100	> 100	> 100	> 100	> 100	> 100	> 100	> 100	> 100	–	–	–	–	–	–	–	–	–	–
O=C(CCCCCCC(=O)Nc1ccc(N(CCCl)CCCl)cc1)NO	19.3	10.7	12	4.74	14.7	–	10.1	7.37	14.1	22.6	2.72	9.26	2.43	1.87	1.64	2.38	1.35	1.63	2.27	–
COc1cc(C2C(C(=O)O)=C(CO)Oc3cc4c(cc32)OCO4)cc(OC)c1O (stereo unspecified)	–	> 100	–	–	> 100	–	> 100	–	> 100	–	–	–	–	–	–	–	–	–	–	–
CCCc1[nH]c(SCCCCCCCCSc2nc(-c3ccc(F)cc3)c(CCC)[nH]2)nc1-c1ccc(F)cc1	–	> 100	–	> 100	27.7	> 100	8.5	–	> 100	> 100	–	–	–	–	–	–	–	–	–	–
ONc1ncnc2nc[nH]c12	–	> 100	–	–	> 100	> 100	> 100	–	> 100	> 100	–	–	–	–	–	–	–	–	–	–
N=c1c2c(C(N)=O)cn(C3OC(CO)C(O)C3O)c2ncn1O (stereo unspecified)	1.36	0.506	0.74	3.71	2.02	2.33	4.85	3.69	0.901	–	–	–	–	–	–	–	–	–	–	–
Cc1cccc2nc3c(C(=O)NCCN(C)C)cccc3cc12	–	–	–	4.13	4.84	3.46	6.75	–	3.44	5.36	–	–	–	–	–	–	–	–	–	–
O=S(=O)(O)c1ccc2cccc(N=Nc3c(O)ccc4ccccc34)c2c1	> 100	> 100	> 100	> 100	> 100	> 100	> 100	> 100	> 100	> 100	–	–	–	–	–	–	–	–	–	–
CCOC(=O)c1nc2ccc(Cl)cc2c2c1Cc1ccccc1-2	–	> 100	–	> 100	> 100	> 100	> 100	–	> 100	> 100	–	–	–	–	–	–	–	–	–	–
CN(C)CC(=O)Nc1ccc(Cn2nnc3c2C(=O)c2nnn(Cc4ccc(NC(=O)CN(C)C)cc4)c2C3=O)cc1	0.337	0.284	0.198	–	0.502	–	0.342	0.449	0.339	0.37	0.175	0.162	0.14	0.0708	–	0.197	0.172	0.166	0.172	–
CC1SC(c2ccccc2)N(CCc2cccs2)C1=O (stereo unspecified)	19.9	–	16.7	20.4	19.2	14.7	17.8	18.7	14.5	16.4	7.08	4.4	–	3.63	6.76	5.14	3.01	2.16	4.73	3.42
CCOC(=O)N(Cc1cccs1)c1cc(OC)c(OC)c(OC)c1	> 100	> 100	63.2	> 100	–	> 100	> 100	> 100	> 100	> 100	–	–	–	–	–	–	–	–	–	–
COc1ccc(/C(=C2/O[C@@H]([C@H]3COC(C)(C)O3)[C@H]3OC(C)(C)O[C@@H]23)c2cc(OC)c(OC)c(OC)c2)cc1O	> 100	–	5.54	5.07	8.75	8.44	> 100	> 100	> 100	80.4	3.93	31.1	–	2.15	2.35	3.15	6.36	44.3	39.4	3.26
CCS(=O)(=O)Nc1ccc(Nc2c3ccccc3nc3ccccc23)c(OC)c1	–	–	–	9.6	4.38	18.8	3.01	–	16.9	9.3	–	–	–	–	–	–	–	–	–	–
Cc1nc(N)nc(N)c1-c1ccc(Cl)c(Cl)c1	> 100	> 100	> 100	> 79.9	> 100	> 90.6	> 76.4	> 100	> 100	> 50.6	–	–	–	–	–	–	–	–	–	–
CCN(CC)CC(C)Nc1ccc([N+](=O)[O-])c2sc3ccccc3c(=O)c12 (stereo unspecified)	9.79	4.03	8.33	5.71	7.56	5.04	17.2	13.2	4.15	11.9	1.49	2.21	1.68	2.15	1.65	2	3.64	2.05	1.68	1.94
CCSCCC(N)C(=O)O (stereo unspecified)	> 100	> 100	> 100	> 100	> 100	> 100	> 100	> 100	> 100	> 100	–	–	–	–	–	–	–	–	–	–
CN1CC[C@@]2(c3cccc(O)c3)CC(=O)/C(=C/c3ccccc3)[C@H]1C2	29.3	30.4	13.9	20.5	35.3	87.2	7.09	–	30.8	25	–	–	–	–	–	–	–	–	–	–
Cn1c(=S)[nH]c2sc3c(c2c1=O)CCSC3	57.1	> 100	> 100	14.7	> 100	> 100	> 100	90.2	> 100	> 100	–	–	–	–	–	–	–	–	–	–
COc1ccc2nc(-c3ccc(-c4noc(-c5cc(OC)c(OC)c(OC)c5)n4)cc3)[nH]c2c1	28.3	22.7	39.8	19.1	3.83	51.1	27.4	35.9	46.9	> 100	9.48	35.5	5.47	4.27	5.24	2	12.5	14.7	17.1	18.9
